Results: patent US4358441A, “Nicotinic derivatives of glucosamine and related pharmaceutical compositions” (Laboratorio Guidotti & C. S.p.A., priority 1980, dated 1982)

What was measured:
[1] = system: plasma levels of cholesterol; assay: Effect of oral administration on plasma levels of cholesterol in the empty rat; format: in vivo, rat (COBS CD (SD) BR male); details: for Percent variations of plasma cholesterol with respect to the controls: 100 mg/kg oral referred to nicotinic acid, empty rat
rats of both sexes = assay: Acute toxicity (LD50) in rats of both sexes, oral and intraperitoneal route; details: rat
in vivo [2] = details: rat
[3] = system: plasma levels of triglycerides; assay: Effect of oral administration on plasma levels of triglycerides in the empty rat; format: in vivo, rat (COBS CD (SD) BR male); details: for Percent variations of plasma triglycerides with respect to the controls: empty rat; for Time within which the effect on triglycerides disappears: rat
[4] = system: plasma levels of free glycerol; assay: Effect of oral administration on plasma levels of free glycerol in the empty rat; format: in vivo, rat (COBS CD (SD) BR male); details: for Percent variations of plasma free glycerol with respect to the controls: empty rat; for Activity on free glycerol: 30 mg/kg oral; for Activity on free glycerol / Time within which the effect on free glycerol disappears: rat; for Time within which the effect on free glycerol disappears: 100 mg/kg oral
plasma levels of FFA = assay: Effect of oral administration on plasma levels of FFA in the empty rat; details: for Percent variations of plasma FFA with respect to the controls: empty rat
in vivo [5] = details: rat, po, 100 mg/kg
[6] = Acute toxicity (LD50) in rats of both sexes, oral and intraperitoneal route; details: rat, in vivo, LD50, rat
[7] = Plasma levels (kinetics) of free nicotinic acid after oral administration in the rat; details: 100 mg/kg p.o.
[8] = 30 mg/kg oral referred to nicotinic acid, 1 h
[9] = 30 mg/kg oral referred to nicotinic acid, 2 h
[10] = 30 mg/kg oral referred to nicotinic acid, 4 h
[11] = 30 mg/kg oral referred to nicotinic acid, 6 h
[12] = 30 mg/kg oral referred to nicotinic acid, 8 h
[13] = 30 mg/kg oral referred to nicotinic acid, 10 h
[14] = 30 mg/kg oral referred to nicotinic acid, 12 h
[15] = 30 mg/kg oral referred to nicotinic acid, 16 h
[16] = 100 mg/kg oral referred to nicotinic acid, 2 h
[17] = 100 mg/kg oral referred to nicotinic acid, 4 h
[18] = 100 mg/kg oral referred to nicotinic acid, 6 h
[19] = 100 mg/kg oral referred to nicotinic acid, 8 h
[20] = 100 mg/kg oral referred to nicotinic acid, 10 h
[21] = 100 mg/kg oral referred to nicotinic acid, 16 h
[22] = 100 mg/kg oral referred to nicotinic acid, 24 h
[23] = 100 mg/kg oral referred to nicotinic acid, 32 h

O=C(N[C@H]1C(OC(=O)c2cccnc2)O[C@H](COC(=O)c2cccnc2)[C@@H](OC(=O)c2cccnc2)[C@@H]1OC(=O)c1cccnc1)c1cccnc1 (stereo partly drawn) [GLUN, N-nicotinoyl-glucosamine tetranicotinate]
Percent variations of plasma cholesterol with respect to the controls ([1]; 4 h): +9%
Percent variations of plasma cholesterol with respect to the controls ([1]; 6 h): -4%
Percent variations of plasma cholesterol with respect to the controls ([1]; 8 h): -13%
Percent variations of plasma cholesterol with respect to the controls ([1]; 10 h): -29%
Percent variations of plasma cholesterol with respect to the controls ([1]; 16 h): -53%
Percent variations of plasma cholesterol with respect to the controls ([1]; 24 h): -37%
Percent variations of plasma cholesterol with respect to the controls ([1]; 32 h): -42%
Percent variations of plasma cholesterol with respect to the controls ([1]; 48 h): -29%
Cholesterol lowering effect with respect to that of the reference standards ([1]; 100 mg/kg oral, rat): constantly more relevant
Lowering of cholesterolemy ([1]; 100 mg/kg oral, rat): depresses the cholesterolemy from the eighth to the fortyeighth hour
Acute toxicity lower than that of nicotinic acid (rats of both sexes; intraperitoneal route): 20 times
Acute toxicity lower than that of nicotinic acid (rats of both sexes; oral route): 2 times
LD50 (in vivo [2]; ip, female): 6750 mg/kg
LD50 (in vivo [2]; ip, male): 6650 mg/kg
LD50 (in vivo [2]; po, female, os): > 8000 mg/kg
LD50 (in vivo [2]; po, male, os): > 8000 mg/kg
Percent variations of plasma triglycerides with respect to the controls [3, 8]: -2%
Percent variations of plasma triglycerides with respect to the controls [3, 9]: -45%
Percent variations of plasma triglycerides with respect to the controls [3, 10]: -44%
Percent variations of plasma triglycerides with respect to the controls [3, 11]: -41%
Percent variations of plasma triglycerides with respect to the controls [3, 12]: -36%
Percent variations of plasma triglycerides with respect to the controls [3, 13]: -62%
Percent variations of plasma triglycerides with respect to the controls [3, 14]: -31%
Percent variations of plasma triglycerides with respect to the controls [3, 15]: +31%
Time within which the effect on triglycerides disappears ([3]; 30 mg/kg oral): ≤ 16 h
Percent variations of plasma triglycerides with respect to the controls [3, 16]: -52%
Percent variations of plasma triglycerides with respect to the controls [3, 17]: -65%
Percent variations of plasma triglycerides with respect to the controls [3, 18]: -72%
Percent variations of plasma triglycerides with respect to the controls [3, 19]: -75%
Percent variations of plasma triglycerides with respect to the controls [3, 20]: -65%
Percent variations of plasma triglycerides with respect to the controls [3, 21]: -67%
Percent variations of plasma triglycerides with respect to the controls [3, 22]: 3%
Percent variations of plasma triglycerides with respect to the controls [3, 23]: +13%
Time within which the effect on triglycerides disappears ([3]; 100 mg/kg oral): within the twenty fourth hour
Percent variations of plasma free glycerol with respect to the controls [4, 8]: -27%
Percent variations of plasma free glycerol with respect to the controls [4, 9]: -63%
Percent variations of plasma free glycerol with respect to the controls [4, 10]: -7%
Percent variations of plasma free glycerol with respect to the controls [4, 11]: -17%
Percent variations of plasma free glycerol with respect to the controls [4, 12]: -25%
Percent variations of plasma free glycerol with respect to the controls [4, 13]: -4%
Percent variations of plasma free glycerol with respect to the controls [4, 14]: -5%
Percent variations of plasma free glycerol with respect to the controls [4, 15]: +5%
Activity on free glycerol [4]: active at the 2nd hour
Percent variations of plasma free glycerol with respect to the controls [4, 16]: -81%
Percent variations of plasma free glycerol with respect to the controls [4, 17]: -47%
Percent variations of plasma free glycerol with respect to the controls [4, 18]: -24%
Percent variations of plasma free glycerol with respect to the controls [4, 19]: -32%
Percent variations of plasma free glycerol with respect to the controls [4, 20]: -41%
Percent variations of plasma free glycerol with respect to the controls [4, 21]: +3%
Percent variations of plasma free glycerol with respect to the controls [4, 22]: 0%
Percent variations of plasma free glycerol with respect to the controls [4, 23]: +16%
Time within which the effect on free glycerol disappears [4]: within the sixteenth hour
Percent variations of plasma FFA with respect to the controls (plasma levels of FFA; [8]): -33%
Percent variations of plasma FFA with respect to the controls (plasma levels of FFA; [9]): -67%
Percent variations of plasma FFA with respect to the controls (plasma levels of FFA; [10]): -3%
Percent variations of plasma FFA with respect to the controls (plasma levels of FFA; [11]): -16%
Depression of plasma FFA (plasma levels of FFA; 30 mg/kg oral, rat): still active in the second hour
Percent variations of plasma FFA with respect to the controls (plasma levels of FFA; [16]): -74%
Percent variations of plasma FFA with respect to the controls (plasma levels of FFA; [17]): -41%
Percent variations of plasma FFA with respect to the controls (plasma levels of FFA; [18]): -28%
Percent variations of plasma FFA with respect to the controls (plasma levels of FFA; [19]): -43%
Percent variations of plasma FFA with respect to the controls (plasma levels of FFA; [20]): -40%
Percent variations of plasma FFA with respect to the controls (plasma levels of FFA; [21]): -7%
Percent variations of plasma FFA with respect to the controls (plasma levels of FFA; [22]): -2%
Time within which the effect on FFA disappears (plasma levels of FFA; 100 mg/kg oral, rat): ≤ 16 h

O=C(O)c1cccnc1 [NICOTINIC ACID, nicotinic acid]
Percent variations of plasma cholesterol with respect to the controls ([1]; 4 h): -12%
Percent variations of plasma cholesterol with respect to the controls ([1]; 6 h): -12%
Percent variations of plasma cholesterol with respect to the controls ([1]; 8 h): -13%
Percent variations of plasma cholesterol with respect to the controls ([1]; 10 h): -17%
Percent variations of plasma cholesterol with respect to the controls ([1]; 16 h): -14%
Percent variations of plasma cholesterol with respect to the controls ([1]; 24 h): -27%
Lowering of cholesterolemy ([1]; 100 mg/kg oral, rat): lowered at the eighth, tenth and twenty fourth hour
Tmax (in vivo [5]): ≤ 30 min
concentration at 0.5 h (in vivo [5]): 108000 ng/mL
concentration at 1 h (in vivo [5]): 106000 ng/mL
concentration at 2 h (in vivo [5]): 98300 ng/mL
concentration at 4 h (in vivo [5]): 10600 ng/mL
concentration at 6 h (in vivo [5]): 760 ng/mL
concentration at 8 h (in vivo [5]): 250 ng/mL
concentration at 12 h (in vivo [5]): 490 ng/mL
concentration at 16 h (in vivo [5]): 120 ng/mL
LD50 ([6]; ip, female): 296 mg/kg
LD50 ([6]; ip, male): 328 mg/kg
LD50 ([6]; po, female, os): 3850 mg/kg
LD50 ([6]; po, male, os): 3860 mg/kg
Percent variations of plasma triglycerides with respect to the controls [3, 8]: -49%
Percent variations of plasma triglycerides with respect to the controls [3, 9]: -49%
Percent variations of plasma triglycerides with respect to the controls [3, 10]: +8%
Percent variations of plasma triglycerides with respect to the controls [3, 11]: +17%
Time within which the effect on triglycerides disappears ([3]; 30 mg/kg oral): ≤ 4 h
Percent variations of plasma triglycerides with respect to the controls [3, 16]: -57%
Percent variations of plasma triglycerides with respect to the controls [3, 17]: -58%
Percent variations of plasma triglycerides with respect to the controls [3, 18]: -59%
Percent variations of plasma triglycerides with respect to the controls [3, 19]: -38%
Percent variations of plasma triglycerides with respect to the controls [3, 20]: +4%
Percent variations of plasma triglycerides with respect to the controls [3, 21]: +21%
Percent variations of plasma triglycerides with respect to the controls [3, 22]: -16%
Time within which the effect on triglycerides disappears ([3]; 100 mg/kg oral): within the tenth hour
Percent variations of plasma free glycerol with respect to the controls [4, 8]: -72%
Percent variations of plasma free glycerol with respect to the controls [4, 9]: -27%
Percent variations of plasma free glycerol with respect to the controls [4, 10]: +16%
Percent variations of plasma free glycerol with respect to the controls [4, 11]: +15%
Activity on free glycerol [4]: active only after 1 hour
Percent variations of plasma free glycerol with respect to the controls [4, 16]: -73%
Percent variations of plasma free glycerol with respect to the controls [4, 17]: -71%
Percent variations of plasma free glycerol with respect to the controls [4, 18]: +9%
Percent variations of plasma free glycerol with respect to the controls [4, 19]: +11%
Percent variations of plasma free glycerol with respect to the controls [4, 20]: +16%
Percent variations of plasma free glycerol with respect to the controls [4, 21]: -12%
Percent variations of plasma free glycerol with respect to the controls [4, 22]: -4%
Time within which the effect on free glycerol disappears [4]: within the sixth hour
Peak plasma concentration of free nicotinic acid, times higher than that of niceritrole [7]: about two times higher
Percent variations of plasma FFA with respect to the controls (plasma levels of FFA; [8]): -81%
Percent variations of plasma FFA with respect to the controls (plasma levels of FFA; [9]): -43%
Percent variations of plasma FFA with respect to the controls (plasma levels of FFA; [10]): +23%
Percent variations of plasma FFA with respect to the controls (plasma levels of FFA; [11]): +11%
FFA rebound (plasma levels of FFA; 30 mg/kg oral, rat): causes FFA rebound in the fourth hour
Percent variations of plasma FFA with respect to the controls (plasma levels of FFA; [16]): -77%
Percent variations of plasma FFA with respect to the controls (plasma levels of FFA; [17]): -68%
Percent variations of plasma FFA with respect to the controls (plasma levels of FFA; [18]): +23%
Percent variations of plasma FFA with respect to the controls (plasma levels of FFA; [19]): +23%
Percent variations of plasma FFA with respect to the controls (plasma levels of FFA; [20]): +13%
Percent variations of plasma FFA with respect to the controls (plasma levels of FFA; [21]): -9%
Percent variations of plasma FFA with respect to the controls (plasma levels of FFA; [22]): -5%
FFA rebound (plasma levels of FFA; 100 mg/kg oral, rat): eighth
Time within which the effect on FFA disappears (plasma levels of FFA; 100 mg/kg oral, rat): ≤ 6 h
